# Test results taken from PMC10145446, “Developing a Formulation Strategy Coupled with PBPK Modeling and Simulation for the Weakly Basic Drug Albendazole” (Pharmaceutics, 2023).
# Where two headings read alike, the source gives them in different places.
# Legend:
# [1] = system: FMO3; details: ref [36]; cited from earlier work
# [2] = system: CYP3A4; details: ref [36]; cited from earlier work
# [3] = Equilibrium solubility by shake flask method; format: physicochemical
# Description: The equilibrium solubility of ABZ was measured by the shake flask method at 37 ± 2 °C in different pH solution systems: 0.1 N HCl (pH 1.20 ± 0.01 and pH 2.0 ± 0.01), 0.02 M acetate buffer (pH 4.5 ± 0.02), and 0.05 M phosphate buffer (pH 6.8 ± 0.01). Solubility was also determined in FaSSGF (pH 1.6 ± 0.01), FaSSIF (pH 6.5 ± 0.01), and FeSSIF (pH 5.0 ± 0.01) containing bile concentrations of 0.08 mM, 3 mM, and 15 mM, respectively. For each experiment, an excess amount of ABZ (~10 mg) was dispersed in 3 mL of solution. A sample was collected after 72 h and filtered using 0.45 µm polytetrafluoroethylene membrane disc filters (Pall Corp., New York, NY, USA). The samples were analyzed using a validated HPLC method. All experiments were performed in triplicate. The pH solubility profile and biorelevant solubility data for ABZ were analyzed using Simcyp™ In Vitro Data Analysis (SIVA, Certara UK Ltd., Sheffield, UK) software in order to estimate intrinsic solubility and the micelle-buffer partition coefficient (log Km:w). These parameter values were incorporated into the PBPK model for ABZ.
# [4] = physchem; details: aqueous pH solution systems (pH solubility profile), 37 °C, aqueous buffer, thermodynamic from solid
# Description: The equilibrium solubility of ABZ was measured by the shake flask method at 37 ± 2 °C in different pH solution systems: 0.1 N HCl (pH 1.20 ± 0.01 and pH 2.0 ± 0.01), 0.02 M acetate buffer (pH 4.5 ± 0.02), and 0.05 M phosphate buffer (pH 6.8 ± 0.01). Solubility was also determined in FaSSGF (pH 1.6 ± 0.01), FaSSIF (pH 6.5 ± 0.01), and FeSSIF (pH 5.0 ± 0.01) containing bile concentrations of 0.08 mM, 3 mM, and 15 mM, respectively [25]. For each experiment, an excess amount of ABZ (~10 mg) was dispersed in 3 mL of solution. A sample was collected after 72 h and filtered using 0.45 µm polytetrafluoroethylene membrane disc filters (Pall Corp., New York, NY, USA). The samples were analyzed using a validated HPLC method. All experiments were performed in triplicate. The pH solubility profile and biorelevant solubility data for ABZ were analyzed using Simcyp™ In Vitro Data Analysis (SIVA, Certara UK Ltd., Sheffield, UK) software in order to estimate intrinsic solubility and the micelle-buffer partition coefficient (log Km:w). These parameter values were incorporated into the PBPK model for ABZ.
# Data from dissolution experiments were used to estimate intrinsic solubility and bile-salt micelle-mediated solubilization using SIVA. Micelle buffer partition coefficients (log Km:w) for ABZ, both in neutral and ionic species of ABZ, were estimated using observed solubilities in biorelevant media.
# [5] = cited from earlier work
# [6] = Transfer system experiment (FaSSGF to FaSSIF) for precipitation kinetics; format: physicochemical; details: for Precipitation rate constant (PRC): max. value
# Description: These experiments were carried out in order to characterize the precipitation kinetics of ABZ in a system designed to mimic the physiologic conditions in the GI tract as the drug moves from the stomach to the small intestine, where precipitation is inevitable and limits the availability of the soluble drug for absorption. To simulate the impact on solubility when the drug transits from the stomach into the intestine, the experimental system (Figure 1) consisted of two physiologically relevant compartments with allowances for modifications in transfer rate (representing the GI emptying rate), paddle speeds (representing the hydrodynamics inside the GI tract), and composition (representing fasted vs. fed conditions). A conventional dissolution system (Distek 5100, Distek Inc., North Brunswick Township, NJ, USA) with a USP-II paddle method was utilized. The gastric compartment contained FaSSGF media (250 mL, pH 1.6), and FaSSIF media (500 mL, pH 6.5), which constituted the intestinal compartment. FaSSIF was prepared with a higher buffer capacity to minimize pH changes after the complete transfer of the simulated gastric media. The paddle speed was maintained at 100 rpm for both compartments. The transfer was initiated after 30 min at a constant rate of 7 mL/min using an Econo™ Gradient pump (Bio-Rad Laboratories, Inc., Hercules, CA, USA). The following experiments were carried out: (a) 40 mg of free ABZ base (neat API) to maintain the sink condition in the gastric media. (b) Marketed immediate-release formulation (equivalent to 40 mg of ABZ) to maintain the sink condition and to determine the effect of excipients on promoting the supersaturation state. (c) Marketed immediate-release tablet formulation (400 mg of ABZ).
# The gastric compartment was sampled at 5, 15, and 30 min, at which time the transfer to the intestinal compartment was initiated. Then, samples were collected from the intestinal compartment for an additional 90 min (32, 35, 40, 45, 50, 60, 75, 90, 105, and 120 min). Samples were filtered through 0.45 µm PTFE filters and immediately diluted with the mobile phase before quantitative analysis by HPLC. All dissolution experiments were performed in triplicate.
# [7] = Particle size distribution by laser diffraction; format: physicochemical; details: pure ABZ
# Description: Particle size distribution (PSD) data for the marketed formulation are not publicly available. […] The particle size distribution of ABZ was measured by laser diffraction using a Mastersizer 3000 equipped with Aero S (dry dispersion feeder unit). The instrument software was used to calculate d10, d50, and d90, representing the volume percentage or portion of particles below the 10th, 50th, and 90th percentiles, respectively. PSD was characterized as a Weibull distribution function, and the data were analyzed to estimate the Weibull parameter values and mean radiuses, which served as the input parameters in the model development.
# [8] = PBPK model simulation in Healthy Human Volunteer Population; details: healthy volunteers, albendazole 400 mg oral
# Description: Clinically observed plasma profiles of ABZ and ABZ_SO were digitized from a published study using WebPlotDigitizer (Version 4.2, Austin, TX, USA), and the systemic exposure parameters (Cmax, AUC) were used to verify the model. PBPK model simulations were performed using the Healthy Human Volunteer Population according to the design of the referenced clinical study: 10 subjects (6 male, 4 female), aged 21 to 44 years, single oral dose of albendazole (400 mg). Model verification was based on visual inspection of the simulated ABZ and ABZ_SO mean plasma versus time profiles compared to observed data, and the fold error (ratio of model predicted and observed values) for Cmax and AUC of ABZ and ABZ_SO.
# [9] = set-up: method as in PMID 29403987; details: healthy volunteers, single oral dose of albendazole 400 mg; ref [41]; cited from earlier work
# [10] = set-up: method as in PMID 7571717; details: in humans; ref [43]; cited from earlier work
# [11] = set-up: method as in Literature; details: ref Literature; cited from earlier work
smiles,measurement,setting,value
"CCCSc1ccc2nc(NC(=O)OC)[nH]c2c1 [ABZ, Albendazole]",Km,[1],9.6 µM
same,Vmax,[1],1103 pmol/min/pmol
same,Km,[2],10.1 µM
same,Vmax,[2],369 pmol/min/pmol
same,solubility at 72 h,"[3]; 0.02 M acetate buffer, 37 °C, pH 4.5, aqueous buffer, thermodynamic from solid, pH 4.5 Acetate buffer, 37 ± 2.0 °C, read-out: Solubility",8 ± 2 µg/mL
same,solubility at 72 h,"[3]; 0.05 M phosphate buffer, 37 °C, pH 6.8, aqueous buffer, thermodynamic from solid, pH 6.8, read-out: solubility",~5 µg/mL
same,solubility at 72 h,"[3]; 0.05 M phosphate buffer, 37 °C, pH 6.8, aqueous buffer, thermodynamic from solid, pH 6.8 Phosphate buffer, 37 ± 2.0 °C, read-out: Solubility",5 ± 1 µg/mL
same,solubility at 72 h,"[3]; 0.1 N HCl, 37 °C, pH 1.2, simulated gastric fluid, thermodynamic from solid, pH 1.2, read-out: maximum solubility",~500 µg/mL
same,solubility at 72 h,"[3]; 0.1 N HCl, 37 °C, pH 1.2, simulated gastric fluid, thermodynamic from solid, pH 1.2 HCl buffer, 37 ± 2.0 °C, read-out: Solubility",515 ± 45 µg/mL
same,solubility at 72 h,"[3]; 0.1 N HCl, pH 2, pH 2.0 HCl buffer, 37 ± 2.0 °C, read-out: Solubility",25 ± 5 µg/mL
same,solubility at 72 h,"[3]; FaSSGF, 37 °C, pH 1.6, fassgf or other biorelevant, thermodynamic from solid, FaSSGF (pH 1.6), 37 ± 2.0 °C, read-out: Solubility",146 ± 12 µg/mL
same,solubility at 72 h,"[3]; FaSSGF, 37 °C, pH 1.6, fassgf or other biorelevant, thermodynamic from solid, FaSSGF, read-out: solubility",~146 µg/mL
same,solubility at 72 h,"[3]; FaSSIF, 37 °C, pH 6.5, fassif, thermodynamic from solid, FaSSIF (pH 6.5), 37 ± 2.0 °C, read-out: Solubility",8 ± 1 µg/mL
same,solubility at 72 h,"[3]; FaSSIF, 37 °C, pH 6.5, fassif, thermodynamic from solid, FaSSIF, read-out: solubility",8.2 µg/mL
same,solubility in FeSSIF compared to FaSSIF,[3]; FeSSIF vs FaSSIF,2 fold
same,solubility at 72 h,"[3]; FeSSIF, pH 5, FeSSIF (pH 5.0), 37 ± 2.0 °C, read-out: Solubility",21 ± 4 µg/mL
same,solubility at 72 h,"[3]; FeSSIF, pH 5, FeSSIF, read-out: solubility",~20.5 µg/mL
same,solubility at 72 h,[4],12 µg/mL
same,Log Po:w,"[5]; PBPK input, ref [34]",2.7
same,pKa1 (Ampholyte),"[5]; PBPK input, ref [35]",10.3
same,pKa2 (Ampholyte),"[5]; PBPK input, ref [35]",2.8
same,pKa1 (Ampholyte),"[5]; PBPK input, ref [35], listed as Albendazole",10.26
same,BCS class,[5]; low solubility and high permeability,BCS class II
same,dissolution in FaSSGF within 30 min,"[6]; 40 mg dose, FaSSGF 250 mL pH 1.6",completely dissolved
same,precipitation upon transfer to FaSSIF,"[6]; 40 mg dose, FaSSIF pH 6.5",immediate precipitation
same,Critical Supersaturation Ratio (CSR),"[6]; set from transfer experiment, FaSSIF",1
same,Precipitation rate constant (PRC),[6]; set from transfer experiment,1000 h⁻¹
same,Precipitation rate constant (PRC),"[6]; set from transfer experiment, listed as Albendazole",1000 (max. value) 1/h
same,d10,[7]; laser diffraction,0.95 ± 0.10 µm
same,d50,[7]; laser diffraction,4.1 ± 0.64 µm
same,d90,[7]; laser diffraction,22 ± 1.3 µm
same,"Particle size distribution, Mean Radius",[7]; polydispersed,7.52 µm
same,"Particle size distribution, Weibull Alpha",[7]; polydispersed,1.014
same,"Particle size distribution, Weibull Beta",[7]; polydispersed,8.732
same,"Fold error, AUC0–∞ (predicted parameter/observed parameter)",[8],1.13
same,"Fold error, Cmax (predicted parameter/observed parameter)",[8],1.16
same,AUC0–∞ (observed),[9],53.0 ng·h/mL
same,Cmax (Observed),[9],9.55 ng/mL
same,absolute oral bioavailability,[10],< 5%
"CCC[S+]([O-])c1ccc2[nH]c(NC(=O)OC)nc2c1 (stereo not shown) [ABZ_SO, albendazole sulfoxide]",fu (fraction unbound in plasma),[11],0.3
same,pKa1 (Ampholyte),"[5]; PBPK input, ref [35]",9.79
same,Log Po:w,"[5]; PBPK input, ref [38]",1.17
same,"Fold error, AUC0–∞ (predicted parameter/observed parameter)",[8],0.97
same,"Fold error, Cmax (predicted parameter/observed parameter)",[8],1.01
same,AUC0–∞ (observed),[9],3475 ng·h/mL
same,Cmax (Observed),[9],193.5 ng/mL
